Columns and labels:
[1] = molecular target: human serotonin transporter (SERT) (Homo sapiens (Human), UniProt P31645); assay: Scintillation Proximity Assay (SPA) for human SERT binding ([3H]citalopram); settings: recombinant human SERT, CHO membranes
Excerpt: (§1) Affinity is expressed in terms of inhibition constant (Ki) of the compounds of the invention for DAT, NET and SERT, and it is typically calculated from the IC50 values obtained in competition experiments using Cheng and Prusoff equation (Cheng and Prusoff, Biochem. Pharmacol. 22:3099, 1973). In the context of the present invention pKi values (corresponding to the antilogarithm of Ki) are used instead of Ki; pKi are only estimated to be accurate to about 0.3 log unit.
(§2) Chinese Hamster Ovary (CHO) cells stably expressing either human DAT (hDAT-CHO) or human NET (hNET-CHO) or human SERT (hSERT-CHO) are used for the membrane preparations for radioligand binding assays using Scintillation proximity Assay (SPA) technique. Each cell line is cultured independently in F-12K Nutrient Mixture containing 10% of Fetal Bovine Serum (FBS) supplemented with 450 μg/ml G-418. When cells are at 70-80% of confluence 3 mM Na Butyrate was added to the cell culture medium. After 24 h of incubation, the culture medium was removed and the cells detached with Versene (DAT) or by scraping (NET and SERT). Cell suspension is centrifuged at 41,000 g for 10 minutes at 4° C. The resultant pellets are re-suspended in 15 volumes of Ice-cold buffer (20 mM HEPES, 145 mM NaCl, 5 mM KCl, pH7.3), homogenized using an Ultra Turrax homogeniser and centrifuged as before. The resultant membrane pellets are re-suspended in up to 15 volume of ice-cold buffer, incubated for 20 minutes at 37° C and centrifuged as before at 41,000 g. The final membrane pellets are re-suspended into 5-10 volumes of ice-cold buffer, dispensed into 0.5 ml aliquots and stored at −80° C. until use. Protein concentration for each preparation is determined using Bio-Rad Protein Assay Kit.
(§3) The affinity of the compounds of the invention to the human DAT or NET or SERT transporters is assessed by using the [^3H]WIN-35,428 or [^3H]nisoxetine or [^3H]citalopram binding assays in recombinant human DAT, NET and SERT membranes with the SPA technology. The final assay volume is 50 μL in 384 well plates.
(§4) Briefly, 0.5 μL of test compound in neat DMSO or 0.5 μL of DMSO for total binding (TB) or 0.5 μL of indatraline 1 mM (10 μM final concentration) for non specific binding (NSB) are added to the assay plate. 50 μL of the SPA mixture is added to each well, containing: 30 μg/mL or 10 μg/mL or 25 μg/mL DAT, NET, SERT membranes, respectively; 5 nM [^3H]WIN-35,428 or 5 nM [^3H]nisoxetine or 1 nM [^3H]citalopram, for DAT, NET, SERT assay, respectively; 2.5 mg/mL or 1 mg/mL or 4 mg/mL WGA-PVT SPA beads (PerkinElmer RPNQ0001, for DAT, NET, SERT assay, respectively. All components are added to Assay Buffer (20 mM HEPES pH 7.4, 145 mM NaCl, 5 mM KCl, 0.01% Pluronic F-127). 0.02% BSA was used for DAT binding only. Plates are sealed with Topseal A and centrifuged 1 min, 800 rpm. Plates are loaded into a 1450 Microbeta TriLux (Perkin-Elmer) plate reader and the radioactivity counted after at least 4 hrs or overnight incubation at room temperature. Curve fitting and IC50 estimations are performed using a four parameter model in XLfit (IDBS, Guilford, UK) for Microdoft Excel (Microsoft, Redmond, Wash.).

[2] = molecular target: human dopamine transporter (DAT) (Homo sapiens (Human), UniProt Q01959); assay: Scintillation Proximity Assay (SPA) for human DAT binding ([3H]WIN-35,428); settings: recombinant human DAT, CHO
human dopamine transporter (DAT), sequence (Q01959 whole entry): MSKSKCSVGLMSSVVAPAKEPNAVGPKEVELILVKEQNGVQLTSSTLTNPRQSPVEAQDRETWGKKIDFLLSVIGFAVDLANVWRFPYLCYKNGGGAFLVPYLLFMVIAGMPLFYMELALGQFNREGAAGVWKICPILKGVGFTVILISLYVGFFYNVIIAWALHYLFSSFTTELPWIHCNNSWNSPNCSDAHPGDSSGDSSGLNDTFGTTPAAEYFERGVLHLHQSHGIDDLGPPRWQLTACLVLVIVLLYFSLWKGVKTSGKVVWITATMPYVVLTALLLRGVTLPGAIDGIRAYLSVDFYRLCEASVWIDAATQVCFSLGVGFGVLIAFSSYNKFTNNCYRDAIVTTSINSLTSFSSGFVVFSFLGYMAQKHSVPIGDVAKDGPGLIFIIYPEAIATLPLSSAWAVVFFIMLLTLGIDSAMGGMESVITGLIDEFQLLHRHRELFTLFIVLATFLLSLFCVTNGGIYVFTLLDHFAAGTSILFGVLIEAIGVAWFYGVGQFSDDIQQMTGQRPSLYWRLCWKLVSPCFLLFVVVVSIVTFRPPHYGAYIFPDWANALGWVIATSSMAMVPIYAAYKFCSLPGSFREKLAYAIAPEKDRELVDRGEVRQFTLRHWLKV
Excerpt: as §1, §2, §3, §4
The potency of the compounds of the invention in blocking the DAT function is measured using an uptake assay in a recombinant CHO cell line expressing human DAT (hDAT-CHO). Potency is measured in terms of pIC50 by testing the compounds of invention for the inhibition of [^3H]-dopamine uptake in DAT-CHO cells using a SPA technology in 384 well format.
Briefly, on the days of the experiment hDAT-CHO cells are detached using Versene and added (75,000 cells/mL) to the SPA Mixture, which contains the following components in Assay Buffer (20 mM HEPES, 145 mM NaCl, 5 mM KCl, 2 mM CaCl2, 1 mM MgCl2 and 1 g/L glucose, pH 7.3): 0.02% w/v of Pluronic F127, 2 mg/mL SPA Imaging beads (RPNQ0260, PerkinElmer), 10 μM pargyline and 80 nM of [^3H]-dopamine. […]

[3] = molecular target: human ERG potassium channel (hERG) (Homo sapiens (Human), UniProt Q12809); assay: hERG channel tail current recording using Rapid ICE automated patch-clamp; type: cell-based; settings: HEK293 cells stably transfected with hERG
human ERG potassium channel (hERG), sequence (Q12809 whole entry): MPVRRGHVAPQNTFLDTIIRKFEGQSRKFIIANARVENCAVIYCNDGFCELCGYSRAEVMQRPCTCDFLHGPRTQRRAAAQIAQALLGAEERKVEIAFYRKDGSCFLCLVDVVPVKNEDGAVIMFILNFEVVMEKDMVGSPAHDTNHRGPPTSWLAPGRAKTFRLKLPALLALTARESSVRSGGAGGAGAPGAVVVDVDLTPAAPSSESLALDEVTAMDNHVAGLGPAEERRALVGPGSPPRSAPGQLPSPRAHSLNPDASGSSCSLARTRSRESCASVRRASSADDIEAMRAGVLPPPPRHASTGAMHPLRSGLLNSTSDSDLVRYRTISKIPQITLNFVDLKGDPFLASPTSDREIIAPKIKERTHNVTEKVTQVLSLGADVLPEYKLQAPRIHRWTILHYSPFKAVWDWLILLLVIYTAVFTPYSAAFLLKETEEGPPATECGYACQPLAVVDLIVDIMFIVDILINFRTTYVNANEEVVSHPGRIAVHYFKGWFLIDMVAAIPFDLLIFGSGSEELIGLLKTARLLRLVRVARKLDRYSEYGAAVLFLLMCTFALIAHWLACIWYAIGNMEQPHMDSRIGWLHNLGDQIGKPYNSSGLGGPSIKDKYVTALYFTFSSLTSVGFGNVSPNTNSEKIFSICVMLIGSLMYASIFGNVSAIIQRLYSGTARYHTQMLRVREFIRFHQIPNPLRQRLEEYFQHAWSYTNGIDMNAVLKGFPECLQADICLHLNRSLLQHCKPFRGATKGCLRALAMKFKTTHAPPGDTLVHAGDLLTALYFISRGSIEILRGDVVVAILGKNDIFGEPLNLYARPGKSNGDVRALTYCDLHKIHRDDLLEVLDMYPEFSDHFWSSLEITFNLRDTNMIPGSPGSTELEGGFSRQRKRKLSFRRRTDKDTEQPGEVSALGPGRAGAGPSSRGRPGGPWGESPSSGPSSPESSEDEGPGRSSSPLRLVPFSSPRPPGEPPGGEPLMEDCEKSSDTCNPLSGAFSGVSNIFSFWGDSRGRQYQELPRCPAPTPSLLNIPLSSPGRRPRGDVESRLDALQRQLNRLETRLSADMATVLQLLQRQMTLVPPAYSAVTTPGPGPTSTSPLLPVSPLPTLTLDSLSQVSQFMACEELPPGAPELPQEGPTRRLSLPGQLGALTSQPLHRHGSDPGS
Procedure: The potency of the compounds of the invention in inhibiting human ERG potassium channel (hERG) tail current is assessed in a recombinant HEK293 cell line stably transfected with hERG cDNA using Rapid ICE™ (Rapid Ion Channel Electrophysiology) assay. Rapid ICE™ is an automated patch-clamp assay utilizing the PatchXpress 7000A system (Molecular Devices Corporation) or the QPatch HTX system (Sophion Bioscience A/S).
Briefly cells are cultivated for 24 to 72 hours before recordings in minimum essential medium supplemented with 10% FBS, 1% non-essential amino acids, 1% sodium pyruvate, 2 mM L-glutamine. The day of the experiment cells are detached with TrypLE and prepared to be loaded on the instrument. For PatchXpress cells are finally resuspended in 150 μl of Extracellular Buffer whereas for QPatch cells are resuspended in 7 ml Serum-Free Media containing 25 mM Hepes and Soybean trypsin inhibitor and immediately placed in the cell storage tank of the machine. The composition of the Extracellular Buffer is (mM): NaCl 137; KCl 4; CaCl2 1.8; MgCl2 1.0; D-glucose 10; N 2 hydroxyethylpiperazine-N′-2-ethanesulfonic acid (HEPES) 10; pH 7.4 with 1 M NaOH. The composition of the pipette solution is (mM): KCl 130; MgCl2 1.0; Ethylene glycol-bis(β-aminoethyl ether)-N,N,N′,N′-tetraacetic acid (EGTA) 5; MgATP 5; HEPES 10; pH 7.2 with 1 M KOH. The voltage protocol includes the following steps: step from −80 mV to −50 mV for 200 ms, +20 mV for 4.8 s, step to −50 mV for 5 s then step to the holding potential of −80 mV. Compounds of the invention are dissolved in DMSO and diluted in Extracellular Buffer to achieve final test concentrations (0.1, 1 and 10 μM) in 0.1% DMSO. The voltage protocol is run and recorded continuously during the experiment. The vehicle, corresponding to 0.1% DMSO in Extracellular Buffer, is then applied for 3 min followed by the test substance in triplicate. The standard combined exposure time is 5 min. The average of tail current amplitude values recorded from 4 sequential voltage pulses is used to calculate for each cell the effect of the test substance by calculating the residual current (% control) compared with vehicle pre-treatment. Data are reported as % inhibition for each concentration tested and IC50 values are estimated using DataXpress or QPatch software. At least two cells are tested, more if results diverge.

[4] = molecular target: human norepinephrine transporter (NET) (Homo sapiens (Human), UniProt P23975); assay: Scintillation Proximity Assay (SPA) for human NET binding ([3H]nisoxetine); settings: recombinant human NET, CHO membranes
human norepinephrine transporter (NET), sequence (P23975 whole entry): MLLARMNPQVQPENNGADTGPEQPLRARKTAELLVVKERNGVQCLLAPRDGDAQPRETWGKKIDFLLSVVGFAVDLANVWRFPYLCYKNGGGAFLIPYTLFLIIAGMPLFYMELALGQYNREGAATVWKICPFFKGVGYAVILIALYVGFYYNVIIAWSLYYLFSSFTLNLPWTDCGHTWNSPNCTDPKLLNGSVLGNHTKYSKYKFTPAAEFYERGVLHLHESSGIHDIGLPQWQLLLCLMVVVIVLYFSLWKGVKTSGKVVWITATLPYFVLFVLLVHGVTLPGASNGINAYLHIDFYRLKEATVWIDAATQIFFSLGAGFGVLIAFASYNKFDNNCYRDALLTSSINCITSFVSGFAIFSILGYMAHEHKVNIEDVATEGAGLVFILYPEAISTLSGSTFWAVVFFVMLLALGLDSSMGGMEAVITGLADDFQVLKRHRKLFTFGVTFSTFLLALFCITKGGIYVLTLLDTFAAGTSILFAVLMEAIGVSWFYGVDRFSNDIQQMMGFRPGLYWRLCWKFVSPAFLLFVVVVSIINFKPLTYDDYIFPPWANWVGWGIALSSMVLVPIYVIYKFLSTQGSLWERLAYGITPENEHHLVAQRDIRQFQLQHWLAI
Excerpt: as §1, §2, §3, §4

human serotonin transporter (SERT), sequence (P31645 whole entry): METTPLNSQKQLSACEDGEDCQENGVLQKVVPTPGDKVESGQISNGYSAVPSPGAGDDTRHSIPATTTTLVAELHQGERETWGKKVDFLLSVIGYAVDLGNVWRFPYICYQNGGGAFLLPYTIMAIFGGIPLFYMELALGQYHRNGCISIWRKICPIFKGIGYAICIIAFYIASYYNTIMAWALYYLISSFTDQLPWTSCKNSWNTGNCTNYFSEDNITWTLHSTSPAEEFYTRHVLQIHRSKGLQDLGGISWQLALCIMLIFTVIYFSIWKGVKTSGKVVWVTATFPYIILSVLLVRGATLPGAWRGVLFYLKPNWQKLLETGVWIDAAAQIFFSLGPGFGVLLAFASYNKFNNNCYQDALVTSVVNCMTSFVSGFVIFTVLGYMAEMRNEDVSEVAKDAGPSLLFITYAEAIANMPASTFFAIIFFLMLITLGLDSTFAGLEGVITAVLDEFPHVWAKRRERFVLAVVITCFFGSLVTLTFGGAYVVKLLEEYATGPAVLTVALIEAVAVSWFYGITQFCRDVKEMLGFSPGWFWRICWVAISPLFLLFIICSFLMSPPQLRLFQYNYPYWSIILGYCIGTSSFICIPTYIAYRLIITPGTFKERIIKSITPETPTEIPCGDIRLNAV

| Structure (SMILES) | IC50 [1] | pIC50 DAT [2] | pIC50 hERG [3] | IC50 [4] | pIC50 NET [4] | IC50 [3] |
| --- | --- | --- | --- | --- | --- | --- |
| O=C(NCC1(O)CCN(c2nc(Oc3cccc(F)c3)cc(C(F)(F)F)n2)CC1)c1ccccc1 [Example 26, N-({1-[4-(3-fluorophenoxy)-6-(trifluoromethyl)pyrimidin-2-yl]-4-hydroxypiperidin-4-yl}methyl)benzamide] | > 100 µM | 7.65 | 5.5 | > 100 µM | – | – |
| O=C(NCC1(O)CCN(c2nc(Oc3cccc(F)c3)cc(C(F)(F)F)n2)CC1)c1cnccn1 [Example 28, N-({1-[4-(3-fluorophenoxy)-6-(trifluoromethyl)pyrimidin-2-yl]-4-hydroxypiperidin-4-yl}methyl)pyrazine-2-carboxamide] | > 100 µM | 7.86 | 5.5 | – | 5.96 | – |
| O=C(NCC1(O)CCN(c2nc(Oc3cccc(F)c3)cc(C(F)(F)F)n2)CC1)C1CNC1 [Example 25, N-({1-[4-(3-fluorophenoxy)-6-(trifluoromethyl)pyrimidin-2-yl]-4-hydroxypiperidin-4-yl}methyl)azetidine-3-carboxamide] | 35.5 µM | 8.30 | – | – | 5.70 | > 10 µM |
| OC1(CN2CCC(F)(F)C2)CCN(c2nc(Oc3cccc(F)c3)cc(C(F)(F)F)n2)CC1 [Example 6, 4-[(3,3-difluoropyrrolidin-1-yl)methyl]-1-[4-(3-fluorophenoxy)-6-(trifluoromethyl)pyrimidin-2-yl]piperidin-4-ol] | 32.4 µM | 6.89 | – | – | 5.94 | > 10 µM |
| CC1CCC(C)N1CC1(O)CCN(c2nc(Oc3cccc(F)c3)cc(C(F)(F)F)n2)CC1 (centres unmarked) [Example 8, 4-[(2,5-dimethylpyrrolidin-1-yl)methyl]-1-[4-(3-fluorophenoxy)-6-(trifluoromethyl)pyrimidin-2-yl]piperidin-4-ol] | 6.03 µM | 7.66 | 6.8 | – | 6.29 | – |
| NCC1(F)CCN(c2nc(Oc3cccc(F)c3)cc(C(F)(F)F)n2)CC1 [Example 13, {4-fluoro-1-[4-(3-fluorophenoxy)-6-(trifluoromethyl)pyrimidin-2-yl]piperidin-4-yl}methanamine] | 7.24 µM | 8.31 | 5.4 | – | 6.40 | – |
| NCC1(O)CCN(c2cc(F)c(F)c(Oc3cccc(F)c3)c2)CC1 [Example 19, 4-(aminomethyl)-1-[3,4-difluoro-5-(3-fluorophenoxy)phenyl]piperidin-4-ol] | 0.363 µM | 8.02 | 6.1 | – | 6.10 | – |
| CNCC1(O)CCN(c2nc(Oc3cccc(F)c3)cc(C(F)(F)F)n2)CC1 [Example 5, 1-[4-(3-fluorophenoxy)-6-(trifluoromethyl)pyrimidin-2-yl]-4-[(methylamino)methyl]piperidin-4-ol] | 23.4 µM | 8.33 | 5.7 | – | 6.61 | – |
| NCC1(O)CCN(c2nc(Oc3cccc(F)c3)cc(C(F)(F)F)n2)C1 (centres unmarked) [Example 33, 3-(aminomethyl)-1-[4-(3-fluorophenoxy)-6-(trifluoromethyl)pyrimidin-2-yl]pyrrolidin-3-ol] | 19.1 µM | 8.86 | 5.8 | – | 6.52 | – |
| NCC(=O)NCC1(O)CCN(c2nc(Oc3cccc(F)c3)cc(C(F)(F)F)n2)CC1 [Example 29, 2-amino-N-({1-[4-(3-fluorophenoxy)-6-(trifluoromethyl)pyrimidin-2-yl]-4-hydroxypiperidin-4-yl}methyl)acetamide] | 19.1 µM | 8.22 | 5.4 | – | 5.77 | – |
| Cl.Fc1cccc(Oc2cc(C(F)(F)F)nc(N3CCC4NCCCC4C3)n2)c1 (centres unmarked) [Example 39, 6-[4-(3-fluorophenoxy)-6-(trifluoromethyl)pyrimidin-2-yl]-decahydro-1,6-naphthyridine hydrochloride] | 3.02 µM | 8.90 | 6.2 | – | 7.51 | – |
| NCC1(O)CCN(c2nc(Oc3cccc(F)c3)cc(C(F)(F)F)n2)CC1 [Example 11, 4-(aminomethyl)-1-[4-(3-fluorophenoxy)-6-(trifluoromethyl)pyrimidin-2-yl]piperidin-4-ol] | 7.59 µM | 8.72 | 5.8 | – | 6.46 | – |
| Cl.OC1(CN2CCCNCC2)CCN(c2nc(Oc3cccc(F)c3)cc(C(F)(F)F)n2)CC1 [Example 7, 4-(1,4-diazepan-1-ylmethyl)-1-[4-(3-fluorophenoxy)-6-(trifluoromethyl)pyrimidin-2-yl]piperidin-4-ol hydrochloride] | 2.95 µM | 8.06 | 5.8 | – | 6.53 | – |
| CN(CC1(O)CCN(c2nc(Oc3cccc(F)c3)cc(C(F)(F)F)n2)CC1)C1CC1 [Example 4, 4-{[cyclopropyl(methyl)amino]methyl}-1-[4-(3-fluorophenoxy)-6-(trifluoromethyl)pyrimidin-2-yl]piperidin-4-ol] | > 100 µM | 7.38 | 6.1 | – | 6.19 | – |
